Read-outs that look alike come from different tables or passages of the source.
How the values were obtained:
[1] = system: BaF3 cells with FLT3-D835Y; experiment: Cell viability of transformed BaF3 cells; assay type: cell-based, murine; conditions: Mus musculus, read-out: BaF3 cells with FLT3 mutants IC50 D835Y
Method: (§1) Lentivirus packaging and construction of transformed BaF3 cells were performed as described previously. […] Supernatants were collected and used to infect BaF3 cells, and transduced BaF3 cells were selected with puromycin (1 μg/ml) to obtain stably transformed cells.
(§2) The conditional medium (CM) was prepared from the supernatant of HS-5 cell culture for 5 days under normal culture conditions. At the indicated time point, cell viability was evaluated by MTT assay.

[2] = system: BaF3 cells with FLT3-ITD; experiment: Cell viability of transformed BaF3 cells; assay type: cell-based, murine; conditions: Mus musculus, read-out: BaF3 cells with FLT3 mutants IC50 ITD
Method: as §1, §2

[3] = system: BaF3 cells with FLT3-ITD/D835Y; experiment: Cell viability of transformed BaF3 cells; assay type: cell-based, murine; conditions: Mus musculus, BaF3; cell viability; read-out: BaF3 cells with FLT3 mutants IC50 ITD-D835Y
Method: as §1, §2

[4] = system: BaF3 cells with FLT3-ITD/Y842C; experiment: Cell viability of transformed BaF3 cells; assay type: cell-based, murine; conditions: Mus musculus, read-out: BaF3 cells with FLT3 mutants IC50 ITD-Y842C
Method: as §1, §2

[5] = system: BaF3 cells with FLT3-ITD/N676D; experiment: Cell viability of transformed BaF3 cells; assay type: cell-based, murine; conditions: Mus musculus, read-out: BaF3 cells with FLT3 mutants IC50 ITD-N676D
Method: as §1, §2

[6] = system: BaF3 cells with FLT3-ITD/F691L; experiment: Cell viability of transformed BaF3 cells; assay type: cell-based, murine; conditions: Mus musculus, read-out: BaF3 cells with FLT3 mutants IC50 ITD-F691L
Method: as §1, §2

[7] = system: THP-1; experiment: Cell proliferation MTT assay; assay type: cell-based; conditions: Homo sapiens, 72 h, wild-type FLT3, read-out: Human leukemia cell line IC50 THP-1
Method: as §2

[8] = system: MV4-11; experiment: Cell proliferation MTT assay; assay type: cell-based; conditions: Homo sapiens, 72 h, read-out: Human leukemia cell line IC50 MV4-11
Method: as §2

[9] = system: MOLM13; experiment: Cell proliferation MTT assay; assay type: cell-based; conditions: Homo sapiens, MOLM-13, 72 h, read-out: Human leukemia cell line IC50 MOLM13
Method: as §2

[10] = system: U937; experiment: Cell proliferation MTT assay; assay type: cell-based; conditions: Homo sapiens, U-937, 72 h, wild-type FLT3, read-out: Human leukemia cell line IC50 U937
Method: as §2

[11] = system: MV4-11 cells; experiment: Bone marrow engrafted model, survival; assay type: in vivo, NOD-SCID mice; conditions: MV4-11 bone marrow engraftment; LT-171-861 10 mg/kg every other day, sorafenib orally every day
Method: Six-week-old female NOD-SCID mice were treated with sub-lethal dose radiation (1.8 Gy) before intravenous injection of MV4-11 cells (5×10^6) or MOLM13 cells (5×10^6).
Data were shown as mean±SD. […] Data were shown as mean±SD. (C) An engrafted tumor model was used to evaluate in vivo antitumor activity. The NOD/SCID mice were intravenously inoculated with MV4-11 cells. […] Log-rank testing was used to compare survival curves among treatment groups. […] (D) Apoptotic assays in engraft model were evaluated by TUNEL assay and cell proliferative activity was measured by Ki67 assay. Images were acquired at ×40 magnification. (E) BALB/c nude mice were subcutaneously inoculated with MV4-11 cells (5×10^6) and bodyweight of each mouse was recorded every other day. (F) Representative photo of tumors from BALB/c nude mice which were inoculated with MV4-11 cells. (G) BALB/c nude mice were subcutaneously inoculated with BaF3 cells bearing FLT3-ITD-N676D (n=6) and FLT3-ITD-F691L (n=6) respectively. […] (H) BALB/c mice were intravenously inoculated with cells used in (G). […] Log-rank testing was used to compare survival curves among treatment groups. […] (I) Representative photos of spleens dissected from mice in (H) inoculated with BaF3 cells bearing FLT-3-ITD-F691L.
Mice that received vehicle treatment died within 30 days after intravenous injection of MV4-11 cells.

[12] = system: MOLM13 cells; experiment: Stroma-protecting model: proliferation in HS-5 conditional medium or normal medium; assay type: cell-based; conditions: Homo sapiens
Method: At the indicated time point, cell viability was evaluated by MTT assay.
(A) Indicated FLT3 mutations were expressed in BaF3 cells respectively. […] The autophosphorylation level of FLT3 was visualized and compared by western blot analysis. […] The CM was prepared from HS-5 cell culture for 4 days under routine culture conditions, clarified by centrifugation, and used immediately. The CM was added to complete medium at a final concentration of 40%. Cell viabilities were measured by MTT assay. Data were shown as mean±SD. […] The FLT3 phosphorylation levels of FLT3, STAT5 and ERK 1/2 were determined by Western blot.
On the other hand, the bone marrow stroma-protecting environment containing a number of cytokines (e.g. FLT3 ligand, stromal derived factor-1, etc) could also decrease the drug efficacy of FLT3 inhibitors by activating FLT3 or its downstream effectors and building cross-talk between leukemic blasts and bone marrow microenvironment, [35].

[13] = target: T1, ERK1 (Homo sapiens, UniProt P27361); experiment: Kinase inhibition assay (Reaction Biology); assay type: biochemical; conditions: 10 μM ATP, 10-dose IC50 mode
T1 construct: purchased Reaction Biology Corporation (PA, USA)
T1 sequence (P27361 whole entry): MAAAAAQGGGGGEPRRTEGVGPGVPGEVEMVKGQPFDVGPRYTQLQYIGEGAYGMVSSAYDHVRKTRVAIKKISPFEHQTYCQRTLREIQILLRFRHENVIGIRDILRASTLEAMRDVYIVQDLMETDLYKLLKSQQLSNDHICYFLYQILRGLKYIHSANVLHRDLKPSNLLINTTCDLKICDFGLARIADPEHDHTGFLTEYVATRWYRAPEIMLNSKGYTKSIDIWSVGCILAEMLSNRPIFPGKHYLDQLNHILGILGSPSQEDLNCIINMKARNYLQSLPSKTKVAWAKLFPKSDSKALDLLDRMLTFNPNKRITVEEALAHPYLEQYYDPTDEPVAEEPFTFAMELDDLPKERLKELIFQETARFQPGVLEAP

| IC50 [13] | Structure (SMILES) | IC50 [1] | IC50 [2] | IC50 [3] | IC50 [4] | IC50 [5] | IC50 [6] | IC50 [7] | IC50 [8] | IC50 [9] | IC50 [10] | survival versus vehicle [11] | IC50 ([12]; MOLM-13, HS-5 conditional medium (CM) 40%, 72 h, MTT, read-out: IC50 proliferation of MOLM13 cells in CM) | IC50 ([12]; MOLM-13, normal medium (NM), 72 h, MTT, read-out: IC50 proliferation of MOLM13 cells in NM) | IC50 ([12]; MOLM-13, 72 h, read-out: IC50 proliferation of MOLM13 cells in CM) | IC50 ([12]; MOLM-13, 72 h, read-out: IC50 proliferation of MOLM13 cells in NM) |
| --- | --- | --- | --- | --- | --- | --- | --- | --- | --- | --- | --- | --- | --- | --- | --- | --- |
|  | CNC(=O)c1cc(Oc2ccc(NC(=O)Nc3ccc(Cl)c(C(F)(F)F)c3)cc2)ccn1 [Sorafenib, reference compound] | 235 nM | 13.2 nM | 878 nM | 346 nM | 103 nM | 45.2 nM | > 1000 nM | 3.2 nM | 5.3 nM | > 1000 nM | increased survival rates | 1460 nM | 11.3 nM |  |  |
|  | CC(C)(C)c1cc(NC(=O)Nc2ccc(-c3cn4c(n3)sc3cc(OCCN5CCOCC5)ccc34)cc2)no1 [AC220] |  |  |  |  |  |  | > 1000 nM | 1.5 nM | 1.2 nM | > 1000 nM |  |  |  | 116 nM | 14.1 nM |
| 4.9 nM | O=C(Nc1ccc2[nH]nc(-c3ccncc3)c2c1)[C@@H]1CCN(CC(=O)N2CCN(c3ccc(-c4ncccn4)cc3)CC2)C1 [SCH772984, reference compound] |  |  |  |  |  |  |  |  |  |  |  |  |  |  |  |
